In US10172830B2, “Pyrazolone compounds having human neutrophil elastase inhibitory properties” (CHIESI FARMACEUTICI S.P.A., priority 2016, dated 2019):

Biological target: T1, human neutrophil elastase (HNE) (Homo sapiens, UniProt P08246)
T1 construct: purchased Sigma E8140
T1 sequence (P08246 30-247 limits assumed): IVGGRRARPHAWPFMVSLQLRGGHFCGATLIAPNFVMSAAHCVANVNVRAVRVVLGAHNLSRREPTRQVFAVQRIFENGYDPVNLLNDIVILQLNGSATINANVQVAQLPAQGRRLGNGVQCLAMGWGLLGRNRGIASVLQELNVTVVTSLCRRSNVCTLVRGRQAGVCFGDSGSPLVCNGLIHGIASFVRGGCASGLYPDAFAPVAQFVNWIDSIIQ
Test: HNE enzyme assay (human neutrophil elastase enzyme activity assay)
Type: biochemical
Details: human leukocyte elastase 0.00072 U/mL; substrate MeOSuc-Ala-Ala-Pro-Val-AMC 100 μM; 25° C. for 30 minutes; at least two separate experiments; read-out: HNE inhibition (HNE enzyme inhibition, IC50 values)
Procedure: Compounds of the present invention were tested for potency in a human neutrophil elastase (HNE) enzyme activity assay.
Assays were performed in 96-well plates in a total assay volume of 100 μL. The final concentration of elastase enzyme (human leukocyte elastase, Sigma E8140) was 0.00072 U/mL. The peptide substrate (MeOSuc-Ala-Ala-Pro-Val-AMC, Calbiochem #324740) was used at a final concentration of 100 μM. The final concentration of DMSO was 1% in the assay buffer (0.05M Tris.HCl, 0.1M NaCl, 0.1M CaCl2, 0.0005% brij-35, pH 7.5). The enzymatic reaction was started by addition of the enzyme and incubated at 25° C. for 30 minutes. After incubation, the reaction was stopped by addition of soybean trypsin inhibitor (Sigma T9003) at a final concentration of 50 μg/well. Fluorescence was measured using a Molecular Devices fluorescence plate reader using 380 nm excitation and 460 nm emission wavelengths.
A dose response to each compound was performed and the effect of compound in each experiment was expressed as a percentage inhibition of the control enzyme fluorescence. Dose response curves were plotted and compound potency (IC50) was determined. Compounds were tested in at least two separate experiments.

With `C[C@H](NC(=O)c1c(-c2ccnn2-c2ccc(C#N)cc2)n(C)n(-c2cccc(C(F)(F)F)c2)c1=O)C(=O)N(C)CC1CC[N+](C)(C)CC1` [Example 36, 4-{[((S)-2-{[2′-(4-Cyano-phenyl)-2-methyl-5-oxo-1-(3-trifluoromethyl-phenyl)-2,5-dihydro-1H,2′H-[3,3′]bipyrazolyl-4-carbonyl]-amino}-propionyl)-methyl-amino]-methyl}-1,1-dimethyl-piperidinium benzene sulphonate] the IC50 was < 1 nM.
`C[C@H](NC(=O)c1c(-c2ccnn2-c2ccc(C#N)cc2)n(C)n(-c2cccc(C(F)(F)F)c2)c1=O)c1nnc(C[N+](C)(C)C)o1` [Example 37, [5-((S)-1-{[2′-(4-Cyano-phenyl)-2-methyl-5-oxo-1-(3-trifluoromethyl-phenyl)-2,5-dihydro-1H,2′H-[3,3′]bipyrazolyl-4-carbonyl]-amino}-ethyl)-[1,3,4]oxadiazol-2-ylmethyl]-trimethyl-ammonium benzene sulphonate] was tested, and the IC50 was < 1 nM.
In the case of `C[C@H](NC(=O)c1c(-c2ccnn2-c2ccc(C#N)cc2)n(C)n(-c2cccc(C(F)(F)F)c2)c1=O)C(=O)OCC1CC[N+](C)(C)CC1` [Example 38, 4-((S)-2-{[2′-(4-Cyano-phenyl)-2-methyl-5-oxo-1-(3-trifluoromethyl-phenyl)-2,5-dihydro-1H,2′H-[3,3′]bipyrazolyl-4-carbonyl]-amino}-propionyloxymethyl)-1,1-dimethyl-piperidinium benzene sulphonate], the IC50 is reported as < 1 nM.
`Cn1c(-c2ccnn2-c2ccc(C#N)cc2)c(C(=O)NC2CCN(C(=O)C3CC[N+](C)(C)CC3)CC2)c(=O)n1-c1cccc(C(F)(F)F)c1` [Example 39, 4-(4-{[2′-(4-Cyano-phenyl)-2-methyl-5-oxo-1-(3-trifluoromethyl-phenyl)-2,5-dihydro-1H,2′H-[3,3′]bipyrazolyl-4-carbonyl]-amino}-piperidine-1-carbonyl)-1,1-dimethyl-piperidinium benzene sulphonate] was tested, and the IC50 was < 1 nM.
`CN(CC1CC[N+](C)(C)CC1)C(=O)C(C)(C)NC(=O)c1c(-c2ccnn2-c2ccc(C#N)cc2)n(C)n(-c2cccc(C(F)(F)F)c2)c1=O` [Example 40, 4-{[(2-{[2′-(4-Cyano-phenyl)-2-methyl-5-oxo-1-(3-trifluoromethyl-phenyl)-2,5-dihydro-1H,2′H-[3,3′]bipyrazolyl-4-carbonyl]-amino}-2-methyl-propionyl)-methyl-amino]-methyl}-1,1-dimethyl-piperidinium benzene sulphonate] was tested, and the IC50 was < 1 nM.
`C[C@H](NC(=O)c1c(-c2ccnn2-c2ccc(C#N)cc2)n(C)n(-c2cccc(C(F)(F)F)c2)c1=O)C(=O)N1CCC([N+](C)(C)C)CC1` [Example 41, [1-((S)-2-{[2′-(4-Cyano-phenyl)-2-methyl-5-oxo-1-(3-trifluoromethyl-phenyl)-2,5-dihydro-1H,2′H-[3,3′]bipyrazolyl-4-carbonyl]-amino}-propionyl)-piperidin-4-yl]-trimethyl-ammonium benzene sulphonate] was tested, and the IC50 was < 1 nM.
With `Cn1c(-c2ccnn2-c2ccc(C#N)cc2)c(C(=O)N[C@H]2CC[C@H](C(=O)NCC[N+](C)(C)C)CC2)c(=O)n1-c1cccc(C(F)(F)F)c1` [Example 42, {2-[(Trans-4-{[2′-(4-cyano-phenyl)-2-methyl-5-oxo-1-(3-trifluoromethyl-phenyl)-2,5-dihydro-1H,2′H-[3,3′]bipyrazolyl-4-carbonyl]-amino}-cyclohexanecarbonyl)-amino]-ethyl}-trimethyl-ammonium benzene sulphonate] the IC50 was < 1 nM.
With `Cn1c(-c2ccnn2-c2ccc(C#N)cc2)c(C(=O)NC2CCN(C(=O)C[N+](C)(C)Cc3ccccc3)CC2)c(=O)n1-c1cccc(C(F)(F)F)c1` [Example 43, Benzyl-[2-(4-{[2′-(4-cyano-phenyl)-2-methyl-5-oxo-1-(3-trifluoromethyl-phenyl)-2,5-dihydro-1H,2′H-[3,3′]bipyrazolyl-4-carbonyl]-amino}-piperidin-1-yl)-2-oxo-ethyl]-dimethyl-ammonium bromide] the IC50 was < 1 nM.
For `C[C@H](NC(=O)c1c(-c2ccnn2-c2ccc(C#N)cc2)n(C)n(-c2cccc(C(F)(F)F)c2)c1=O)C(=O)N(C)CC[N+](C)(C)C` [Example 44, {2-[((S)-2-{[2′-(4-Cyano-phenyl)-2-methyl-5-oxo-1-(3-trifluoromethyl-phenyl)-2,5-dihydro-1H,2′H-[3,3′]bipyrazolyl-4-carbonyl]-amino}-propionyl)-methyl-amino]-ethyl}-trimethyl-ammonium benzene sulphonate], the IC50 was < 1 nM.
In the case of `Cn1c(-c2ccnn2-c2ccc(C#N)cc2)c(C(=O)N[C@H]2CC[C@H](NC(=O)C[N+](C)(C)C)CC2)c(=O)n1-c1cccc(C(F)(F)F)c1` [Example 45, [(Trans-4-{[2′-(4-cyano-phenyl)-2-methyl-5-oxo-1-(3-trifluoromethyl-phenyl)-2,5-dihydro-1H,2′H-[3,3′]bipyrazolyl-4-carbonyl]-amino}-cyclohexylcarbamoyl)-methyl]-trimethyl-ammonium benzene sulphonate], the IC50 is reported as < 1 nM.
With `Cc1cc(C[N+](C)(C)C[C@H]2CC[C@H](NC(=O)c3c(-c4ccnn4-c4ccc(C#N)cc4)n(C)n(-c4cccc(C(F)(F)F)c4)c3=O)CC2)n(C)n1` [Example 46, (Trans-4-{[2′-(4-cyano-phenyl)-2-methyl-5-oxo-1-(3-trifluoromethyl-phenyl)-2,5-dihydro-1H,2′H-[3,3′]bipyrazolyl-4-carbonyl]-amino}-cyclohexylmethyl)-(2,5-dimethyl-2H-pyrazol-3-ylmethyl)-dimethyl-ammonium bromide] the IC50 was < 1 nM.
In the case of `Cc1cc(C[N+](C)(C)C[C@H]2CC[C@H](NC(=O)c3c(-c4ccnn4-c4ccc(C#N)cc4)n(C)n(-c4cccc(C(F)(F)F)c4)c3=O)CC2)no1` [Example 47, (Trans-4-{[2′-(4-cyano-phenyl)-2-methyl-5-oxo-1-(3-trifluoromethyl-phenyl)-2,5-dihydro-1H,2′H-[3,3′]bipyrazolyl-4-carbonyl]-amino}-cyclohexylmethyl)-dimethyl-(5-methyl-isoxazol-3-ylmethyl)-ammonium chloride], the IC50 is reported as < 1 nM.
For `Cn1c(-c2ccnn2-c2ccc(C#N)cc2)c(C(=O)NC(C)(C)c2ncc(C[N+](C)(C)C)o2)c(=O)n1-c1cccc(C(F)(F)F)c1` [Example 48, [2-(1-{[2′-(4-Cyano-phenyl)-2-methyl-5-oxo-1-(3-trifluoromethyl-phenyl)-2,5-dihydro-1H,2′H-[3,3′]bipyrazolyl-4-carbonyl]-amino}-1-methyl-ethyl)-oxazol-5-ylmethyl]-trimethyl-ammonium benzene sulphonate], the IC50 was < 1 nM.
`Cc1cc(C[N+]2(C)CCN(C(=O)[C@H](C)NC(=O)c3c(-c4ccnn4-c4ccc(C#N)cc4)n(C)n(-c4cccc(C(F)(F)F)c4)c3=O)CC2)no1` [Example 49, 4-((S)-2-{[2′-(4-Cyano-phenyl)-2-methyl-5-oxo-1-(3-trifluoromethyl-phenyl)-2,5-dihydro-1H,2′H-[3,3′]bipyrazolyl-4-carbonyl]-amino}-propionyl)-1-methyl-1-(5-methyl-isoxazol-3-ylmethyl)-piperazin-1-ium chloride] was tested, and the IC50 was < 1 nM.
With `Cc1cc(C[N+](C)(C)CC(=O)N2CCC(NC(=O)c3c(-c4ccnn4-c4ccc(C#N)cc4)n(C)n(-c4cccc(C(F)(F)F)c4)c3=O)CC2)no1` [Example 50, [2-(4-{[2′-(4-Cyano-phenyl)-2-methyl-5-oxo-1-(3-trifluoromethyl-phenyl)-2,5-dihydro-1H,2′H-[3,3′]bipyrazolyl-4-carbonyl]-amino}-piperidin-1-yl)-2-oxo-ethyl]-dimethyl-(5-methyl-isoxazol-3-ylmethyl)-ammonium chloride] the IC50 was < 1 nM.
`Cn1c(-c2ccnn2-c2ccc(C#N)cc2)c(C(=O)N[C@H]2C[C@H](C(=O)NCC[N+](C)(C)C)C2)c(=O)n1-c1cccc(C(F)(F)F)c1` [Example 51, {2-[(Trans-3-{[2′-(4-cyano-phenyl)-2-methyl-5-oxo-1-(3-trifluoromethyl-phenyl)-2,5-dihydro-1H,2′H-[3,3′]bipyrazolyl-4-carbonyl]-amino}-cyclobutanecarbonyl)-amino]-ethyl}-trimethyl-ammonium benzene sulphonate] was tested, and the IC50 was < 1 nM.
For `C[C@H](NC(=O)c1c(-c2ccnn2-c2ccc(C#N)cc2)n(C)n(-c2cccc(C(F)(F)F)c2)c1=O)c1ncc(CC[N+](C)(C)C)o1` [Example 52, {2-[2-((S)-1-{[2′-(4-Cyano-phenyl)-2-methyl-5-oxo-1-(3-trifluoromethyl-phenyl)-2,5-dihydro-1H,2′H-[3,3′]bipyrazolyl-4-carbonyl]-amino}-ethyl)-oxazol-5-yl]-ethyl}-trimethyl-ammonium benzene sulphonate], the IC50 was 1 to 10 nM.
For `CC(C)[C@H](NC(=O)c1c(-c2ccnn2-c2ccc(C#N)cc2)n(C)n(-c2cccc(C(F)(F)F)c2)c1=O)c1ncc(C[N+](C)(C)C)o1` [Example 53, [2-((S)-1-{[2′-(4-Cyano-phenyl)-2-methyl-5-oxo-1-(3-trifluoromethyl-phenyl)-2,5-dihydro-1H,2′H-[3,3′]bipyrazolyl-4-carbonyl]-amino}-2-methyl-propyl)-oxazol-5-ylmethyl]-trimethyl-ammonium benzene sulphonate], the IC50 was < 1 nM.
